Data set [1] is described as follows: Salt Screen #2: thick and heavy flavor before unpleasant off-flavor (taste, TAS). The class given is in vivo. An excerpt:
The second salt screen that was employed tested whether each electrolyte salt could elicit a thick and heavy flavor before it elicited an unpleasant off-flavor, such as saltiness, bitterness, or chalkiness.

For data set [2] the following is noted: in sweetener compositions exposed to ambient air (hygroscopicity). An excerpt:
The third salt screen that was employed tested whether each electrolyte salt could enhance the flavor of sweetener compositions and remain shelf stable when exposed to ambient air. This screen is related to the water solubility of the salt. When salts have too much water solubility, they can become hygroscopic which means they absorb water from ambient air. Hygroscopic salts become wet and clumpy when exposed to ambient air, and they cause sweetener compositions containing them to become difficult to package and dispense because of this instability to air exposure.
This third salt screen is complementary to the first salt screen because it identifies salts with too much water solubility, while the first salt screen identifies salts with too little water solubility.

Data set [3] can be described thus: Salt Screen #4: compatibility (CMP) in sweetened cold-brewed coffee and tea. In kind it is in vivo. Conditions: sweetener compositions in cold-brewed coffee and tea, pH-sensitive flavors. Here is the method: The fourth salt screen that was employed tested whether each electrolyte salt could enhance the sweetener compositions used to sweeten cold-brewed coffee and tea without disturbing the flavors of these pH-sensitive beverages. The disturbance of pH-sensitive flavors is an important screen because many electrolyte salts influence the pH of the beverages to which they are added. This screen was only applied to the five electrolyte salts that passed the three earlier salt screens.

Data set [4] can be described thus: Carbohydrate screen: flavor at strength of 10% sucrose in water, and mixed with the sweetener composition. Particulars: dissolved into one liter of water to a strength of 10% sucrose. In kind it is in vivo. Here is the method:
Natural sugars and sugar alcohols were screened from commercial sources as candidates for the carbohydrate composition. Refined and unrefined cane sugar, brown sugar, cane juice sugar, maple sugar, coconut sugar, glucose, fructose, and erythritol were dissolved into one liter of water to a strength of 10% sucrose and evaluated for flavor.
Both refined and unrefined cane sugar solutions were mixed with solutions containing the sweetener composition mixed to a strength of 10% sucrose.

For data set [5] the following is noted: cool drinking water, without lengthy stirring or heating. An excerpt:
The first salt screen that was employed tested whether each electrolyte salt had sufficient water solubility. The screen tested whether each salt could dissolve sufficiently into cool drinking water and […] without the need for lengthy stirring or heating.

Data set [6] is described as follows: Sugar-like flavor judged by taste judges in water versus 10% or 20% sucrose (taste, intensity, thickness, total). In kind it is in vivo. Conditions: for improvement in sugar-like flavor: at optimal dose or ratio, versus starting composition without the added ingredient (zero mg/L; pure S1); for optimal level for sugar-like flavor: potassium in 1300 mg/L HPS, sodium in 1300 mg/L HPS + 200 mg/L potassium. An excerpt:
The compositions and methods that embody this invention describe how to form electrolyte-enhanced sweetener compositions that better reproduce the flavor of natural sugar with negligible calories and with favorable physical properties. According to these methods, sugar-like flavor was defined by the numerical consensus of four criteria which were sugar-like taste, intensity, thickness, and compatibility and will be described below.
The four criteria were quantified numerically as four percentile scores. Scores of 100% represented the complete and satisfying reproduction of each criterion of sugar-like flavor. For reference, naturally-refined cane sugar received percentile scores of 100% across all criteria because of how the criteria were defined.
Taste (TAS) The criterion of sugar-like taste encompasses how well a sweetener reproduces the taste of sugar at a high level of sweetness corresponding to a 10% sucrose solution. Ten percent sucrose is equivalent to a 12-ounce soft drink (355 milliliters) sweetened with 36 grams of sucrose. For reference, the sweet taste of sugar develops and recedes across the entire tongue with each tasting in a characteristic way. The time profile of sugar's sweetness is something we generally take for granted until we taste a sweetener with a different time profile that makes it taste unnatural and unsatisfying.
According to a preferred embodiment of this invention, the tastes of sweetener compositions (TAS) were compared to 10% sucrose and evaluated based on the following taste and olfactory flavor properties: • 1. Sweetness across the entire tongue and not in throat; • 2. Rapid onset of sweetness without delay; • 3. Rapid decay of sweetness without lingering after-taste; • 4. Sweetness without bitterness; • 5. Subtle caramel flavor without off-flavors.
Intensity (INT) The criterion of sugar-like intensity represents how well a sweetener reproduces the same five taste properties of sugar (represented by TAS) but at a very high level of sweetness typical in desserts. Drinking water sweetened with 20% sucrose is used as a taste reference for evaluating INT.
Thickness (THK) The criterion of sugar-like thickness represents how well a sweetener reproduces the thick texture of sugar-sweetening that becomes syrupy at higher dose levels. Drinking water samples sweetened with 10% sucrose and with 20% sucrose are used as taste references for evaluating THK.
Total (TOT) The consensus of the percentile scores for the four criteria was determined by numerical averaging to form a total score of sugar-like flavor.
The first three criteria for sugar-like flavor—taste TAS, intensity INT, and thickness THK—were evaluated by taste judges who compared water sweetened to a level of either 10% or 20% sucrose to water sweetened with various sweetener compositions. A level of 10% sucrose represents the sweetness of typical soft drinks and 20% sucrose represents the sweetness of typical desserts.
Taste judges initially evaluated the sugar-like taste TAS and thickness THK of sweetener compositions at the sweetness level of typical soft drinks. They rinsed their mouths with plain water and then evaluated a 100 mL sample of 10% sucrose solution. They took a 15 mL aliquot of the sample into the mouth and swished it around for about 15 seconds. For each mouthful, they evaluated the time course of sweetness onset and decay, natural sugar flavors, off-flavors, and thickness, and they expelled the aliquot into a waste receptacle. Judges continued taking a series of mouthfuls up to a total volume of 100 mL to evaluate the changes in flavor perception from one mouthful to the next related to the natural loss of perceived sweetness, flavor, and thickness of sugar solutions. This protocol was then repeated for each 100 mL sample of spring water sweetened with various sweetener compositions. […]

[7] abbreviates: thick and heavy flavor before saltiness, bitterness or chalkiness.

The structures appear in SMILES notation. Entries after “also recorded” stand apart in the source; their conditions may differ.

Regarding `O=C([O-])[O-].[Ca+2]` [Calcium Carbonate, calcium carbonate], in data set [1] (in vivo), the “Does the Electrolyte Salt Have Suitable Taste (TAS)?” value was “NO, Develops chalky and dry flavor; also recorded: tasted chalky”.
For the compound `[Ca+2].[Cl-].[Cl-]` [Calcium Chloride, calcium chloride], the “Does the Electrolyte Salt Have Suitable Taste (TAS)?” value in data set [1] (in vivo) is on record as “Yes”.
Take `CC(O)C(=O)[O-].CC(O)C(=O)[O-].[Ca+2]` (stereo not shown) [Calcium Lactate, calcium lactate]: in data set [1] (setting [7]), the “Does the Electrolyte Salt Have Suitable Taste (TAS)?” value is given as “Yes”. Besides, the “Does the Electrolyte Salt have Suitable Shelf Stability?” value in data set [2] is reported as “Yes”. Moreover, the “Does the Electrolyte Salt have Suitable Compatibility (CMP)?” value in data set [3] was “NO, Develops sour/chalky flavor”; in data set [3] (listed as calcium lactate) it was “sour and chalky”.
Take `OC[C@@H](O)[C@@H](O)CO` [Erythritol, erythritol]: in data set [4], the “flavor evaluation of carbohydrate candidates” value is recorded as “drying sensation on the tongue or cooling sensation on the throat”.
Still for that read-out and setting: the same measure for `O=C(CO)[C@@H](O)[C@H](O)[C@H](O)CO` [Fructose, fructose]: “lose its sweetness at higher temperatures”.
On to `[Cl-].[Cl-].[Mg+2]` [Magnesium Chloride, magnesium chloride], for which the “Does the Electrolyte Salt Have Suitable Taste (TAS)?” value in data set [1] (in vivo) is listed as “Yes”.
For `O=S(=O)([O-])[O-].[Mg+2]` [Magnesium Sulfate, magnesium sulfate], in data set [1] (in vivo), the “Does the Electrolyte Salt Have Suitable Taste (TAS)?” value is “NO, Develops sour and dry flavor; also recorded: tasted sour”.
Consider `[Cl-].[K+]` [Potassium Chloride, potassium chloride], for which the “Does the Electrolyte Salt Have Suitable Solubility?” value in data set [5] was “Yes”. Further, the “Does the Electrolyte Salt Have Suitable Taste (TAS)?” value in data set [1] (setting [7]) is recorded as “Yes”. For the same compound, the “Does the Electrolyte Salt have Suitable Shelf Stability?” value in data set [2] is given as “Yes”. Also, the “Does the Electrolyte Salt have Suitable Compatibility (CMP)?” value in data set [3] was “Yes”. Moreover, in data set [3] (listed as Potassium chloride), the “Does the Electrolyte Salt have Suitable Compatibility (CMP)?” value was “passed”. In addition, in data set [6], the “improvement in sugar-like flavor” value is recorded as “about 10%” and the “optimal level for sugar-like flavor” value is reported as 200 mg/L.
Regarding `O=C([O-])O.[Na+]` [Sodium Bicarbonate, sodium bicarbonate], the “Does the Electrolyte Salt Have Suitable Taste (TAS)?” value in data set [1] (setting [7]) is recorded as “Yes”. The “Does the Electrolyte Salt have Suitable Compatibility (CMP)?” value is “NO, Develops sour/chalky flavor” in data set [3]; “sour and chalky” in data set [3] (listed as sodium carbonate).
As for `[Cl-].[Na+]` [Sodium Chloride, sodium chloride], the “Does the Electrolyte Salt Have Suitable Taste (TAS)?” value in data set [1] (setting [7]) is given as “Yes”. The “Does the Electrolyte Salt have Suitable Compatibility (CMP)?” value in data set [3] is “Yes”. Moreover, the “Does the Electrolyte Salt have Suitable Compatibility (CMP)?” value in data set [3] (listed as sodium chloride) is on record as “passed”. The “taste of sweetened, potassium-enriched water with sodium chloride” value in data set [6] (HPS 1300 mg/L, potassium 200 mg/L, dietary sodium level of 150 grams per liter (so in the source)) is “thick and only mildly salty”. Moreover, in data set [6] (HPS 1300 mg/L, potassium 200 mg/L, sodium level of 600 mg/L), the “taste of sweetened, potassium-enhanced water with sodium chloride” value is “unacceptably salty”. Moreover, in data set [6], the “improvement in sugar-like flavor” value was “about 5%” and the “optimal level for sugar-like flavor” value was 40 mg/L.
`O=P([O-])(O)O.[Na+]` [Sodium Phosphate Monobasic, sodium phosphate monobasic]: the “Does the Electrolyte Salt Have Suitable Taste (TAS)?” value in data set [1] (setting [7]) was “Yes”. Further, in data set [2], the “Does the Electrolyte Salt have Suitable Shelf Stability?” value is given as “Yes”. Moreover, the “Does the Electrolyte Salt have Suitable Compatibility (CMP)?” value was “NO, Develops sour/chalky flavor” in data set [3]; “sour and chalky” in data set [3] (listed as sodium phosphate monobasic).

The values above are taken from patent publication US20190350240A1, “Electrolyte-Enhanced Sweetener and Consumable Products Obtained” (priority 2018, published 2019).
